Consider three compounds from publication PMC12615753, “Glutathione as a taste modulator: molecular mechanisms of interaction with umami and sweet taste receptors” (Food Chemistry: Molecular Sciences, 2025).

Structures are written as SMILES. Bounds are passed on as bounds.

As usually defined, the EC50 is the concentration giving half of the maximal effect.

The target of this experiment is T1, hTAS1R1 S172A/rTAS1R3 (UniProt Q7RTX1+Q923K1, S172A).
T1 construct: UniProtKB number Q7RTX1–1); The cDNA coding region of rTAS1R3 was synthesized with optimized-codon usage for human expression; expressed in transfected cells; host or cells: HEK293T/17
T1 sequence (Q7RTX1 21-841 S172A): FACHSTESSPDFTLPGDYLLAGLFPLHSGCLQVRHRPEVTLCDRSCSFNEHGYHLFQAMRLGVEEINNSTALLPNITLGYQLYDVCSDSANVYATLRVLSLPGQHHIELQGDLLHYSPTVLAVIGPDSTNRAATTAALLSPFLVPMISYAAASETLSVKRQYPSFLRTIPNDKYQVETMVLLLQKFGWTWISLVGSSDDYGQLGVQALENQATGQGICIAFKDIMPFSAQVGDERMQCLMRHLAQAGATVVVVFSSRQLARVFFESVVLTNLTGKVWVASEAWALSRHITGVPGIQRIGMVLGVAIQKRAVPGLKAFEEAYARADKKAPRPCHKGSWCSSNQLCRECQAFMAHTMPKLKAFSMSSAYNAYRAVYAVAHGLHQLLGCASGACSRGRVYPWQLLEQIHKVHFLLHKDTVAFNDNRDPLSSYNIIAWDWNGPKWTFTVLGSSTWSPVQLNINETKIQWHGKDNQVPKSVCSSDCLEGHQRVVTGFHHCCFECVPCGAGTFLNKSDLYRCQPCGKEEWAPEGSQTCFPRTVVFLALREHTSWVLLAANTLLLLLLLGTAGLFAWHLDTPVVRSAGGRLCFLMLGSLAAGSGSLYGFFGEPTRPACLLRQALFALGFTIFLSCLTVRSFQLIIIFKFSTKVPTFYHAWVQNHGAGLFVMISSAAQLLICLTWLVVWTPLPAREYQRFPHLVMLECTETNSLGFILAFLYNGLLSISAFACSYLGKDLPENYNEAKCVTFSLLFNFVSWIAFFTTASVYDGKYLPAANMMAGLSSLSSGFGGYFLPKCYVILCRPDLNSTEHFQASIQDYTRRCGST
T1 sequence (Q923K1 21-858): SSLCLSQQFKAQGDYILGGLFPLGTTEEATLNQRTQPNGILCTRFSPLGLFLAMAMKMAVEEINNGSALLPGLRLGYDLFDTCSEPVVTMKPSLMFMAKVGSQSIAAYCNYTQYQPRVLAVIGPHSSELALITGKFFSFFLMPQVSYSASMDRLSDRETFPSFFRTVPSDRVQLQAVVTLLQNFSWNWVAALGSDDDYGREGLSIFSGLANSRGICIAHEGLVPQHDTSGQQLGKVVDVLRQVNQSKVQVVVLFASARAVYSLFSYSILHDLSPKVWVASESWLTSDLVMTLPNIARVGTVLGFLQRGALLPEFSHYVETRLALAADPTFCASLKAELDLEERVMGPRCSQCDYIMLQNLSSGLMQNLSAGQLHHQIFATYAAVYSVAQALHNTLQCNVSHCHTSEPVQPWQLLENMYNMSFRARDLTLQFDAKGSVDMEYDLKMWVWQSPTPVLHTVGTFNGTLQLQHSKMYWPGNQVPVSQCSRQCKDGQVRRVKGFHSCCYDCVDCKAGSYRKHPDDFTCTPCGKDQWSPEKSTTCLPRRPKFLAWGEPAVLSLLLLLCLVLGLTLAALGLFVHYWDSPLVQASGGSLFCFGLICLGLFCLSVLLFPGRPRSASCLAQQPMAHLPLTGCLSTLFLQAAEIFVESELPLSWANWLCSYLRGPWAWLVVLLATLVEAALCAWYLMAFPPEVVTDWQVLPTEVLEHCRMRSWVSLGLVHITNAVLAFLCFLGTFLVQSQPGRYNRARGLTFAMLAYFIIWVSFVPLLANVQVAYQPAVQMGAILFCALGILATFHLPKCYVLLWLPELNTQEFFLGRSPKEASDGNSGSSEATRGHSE
Nature of the experiment: Calcium assay, hTAS1R1 mutant co-expressed with rTAS1R3. It is filed as cell-based, human, rat. Particulars: for response to the agonist alone, vs WT: S172A. The text has this: Chimeric Gα proteins, such as Gα16Gust44, Gα16Gi3 or Gα15i2, are widely used in the functional expression of TAS1R receptors ([Backes et al., 2015]; [Suess et al., 2015]; [Toda et al., 2021], [Toda et al., 2013], [Toda et al., 2018]; [Zhang et al., 2008]). Chimeric Gα15i2 (([Toda et al., 2013]), Supplementary data) was generated by replacing the last five residues of the C-terminal tail of rat Gα15i2 (EINLL) (UniProt number G3V6N8; https://www.uniprot.org/uniprot/) with the counterpart sequence from human GNAI2 (DCGLF) (UniProt number P04899-1) and cloning into the pcDNA3.1/Hygro vector (Invitrogen, Thermo Fisher Scientific, Illkirch, France) between the HindIII and NotI restriction sites, resulting in the plasmid pcDNA3.1-Gα15i2. Chimeric Gα16Gust44 construct have already been reported ([Raliou et al., 2011]). Briefly, Gα16Gust44 was generated by replacing the C-terminal of Gα16 with the C-terminal 44 residues of gustducin. As previously described, hTAS1R1 was amplified from human fungiform papillae cDNA and cloned and inserted into pcDNA3 (Invitrogen), generating pcDNA3-TAS1R1-WT (wild-type) ([Raliou et al., 2011]). […] The cDNA coding region of rTAS1R3 was synthesized with optimized-codon usage for human expression (Genewiz) and was cloned and inserted into the mammalian pcDNA4/myc-HisA (Invitrogen) expression vector between the EcoRI and NotI restriction sites, resulting in the plasmid pcDNA4-rTAS1R3. […] The sequence integrity of all the plasmid constructs was verified via automated DNA sequencing (Genewiz).
The hTAS1R1 mutants were co-expressed with the rTAS1R3 subunit in HEK293 cells. […] As a control, the functionality of the mutated receptors was checked after stimulation with S807 (Fig. S8), which interacts with TAS1R1-TMD ([Zhang et al., 2008]).

Turning to `N[C@@H](CCC(=O)N[C@@H](CS)C(=O)NCC(=O)O)C(=O)O` [GSH, γ-L-glutamyl-L-cysteinyl-glycine], the EC50 was greater than 30 mM and the “response to the agonist alone, vs WT” value is given as “fully abolished”.
For the compound `N[C@@H](CCC(=O)O)C(=O)O` [L-Glu, L-glutamic acid, reference compound], the “response to the agonist alone, vs WT” value was “completely suppressed”.
Still for that read-out and setting: under `CCCC(CCC)NC(=O)c1ccc2c(c1)OCO2` [S807, N-(heptan-4-yl)benzo[d][1,3]dioxole-5-carboxamide, reference compound] stands “strongly affected”.
